Legend:
hEP4 = biological target: T1, hEP4 (Homo sapiens, UniProt P35408); assay: hEP4 cAMP assay; format: cell-based; conditions: HEK293 cells overexpressing hEP4; PGE2 20 nM as agonist; median of multiple experiments; read-out: IC50 (nM) EP4 cAMP
T1 construct: expressed in transfected cells; host or cells: HEK293
Method: Experimental Example 1.2: hEP4 cAMP Assay
(§1) HEK293 cells overexpressing hEP4 were cultured in growth medium (GM:MEM (Gibco™, 11095080)/10% HI FBS (Gibco™, 10082147)/1% penicillin/streptomycin). Before the experiment, the growth medium was removed, and starvation medium (HBSS (Gibco™ 14025076)/10% GM) was added. Thereafter, the cells were incubated for 4 hours. HEK293 cells harboring hEP4 were detached from the culture dish with a non-enzymatic cell dissociation buffer (Gibco™, 15040066). The cells were resuspended in assay buffer (AB:HBSS, 0.1% BSA stabilizer, 0.5 mM IBMX, 5 mM HEPES).
(§2) 1,000 cells in 5 μL of AB were seeded per well in a 384 well plate (Corning®, 3570), and stock solutions of test compounds were prepared at a concentration of 1 mM in DMSO and serially diluted in DMSO to the concentration required for the inhibition dose response curve (test concentration range of […]-0.001 nM). […]
(§3) 5 μL of each donor (Eu-cAMP tracer) and acceptor (ULight-anti-cAMP) was added, and the plate was incubated in the dark for 1 hour at room temperature, and then a Varioskan LUX multimode microplate reader was used to obtain the results (excitation: 334 nm, emission: 615 and 665 nm). The resulting FRET fluorescence value (665 nm/615 nm*10000) was converted and then calculated as a percentage of cAMP compared to the DMSO control value. […]

hEP2 = biological target: T2, hEP2 (Homo sapiens, UniProt P43116); assay: hEP2 cAMP assay; format: cell-based; conditions: HEK293 cells overexpressing hEP2; PGE2 400 pM as agonist; median of multiple experiments; read-out: IC50 (nM) EP2 cAMP
T2 construct: expressed in transfected cells; host or cells: HEK293
Method: Experimental Example 1.1: hEP2 cAMP Assay
as §1, with “hEP2” for “hEP4”, “hours. The” for “hours.”
as §2
as §3, with “relative” for “compared”

[1] = Body weight of mice in CT26 tumor model; format: in vivo, mouse; conditions: BALB/c mice
Method: (§4) CT26 cells were subcultured and maintained in a cell incubator (CO2 incubator) under 37° C., 500 CO2 conditions using RPMI-1640 medium containing 10% FBS (fetal bovine serum). For the tumor animal model, CT26 cells were resuspended at a concentration of 533 10^5 cells/100 μL, and 100 μL per each mouse was transplanted into the subcutaneous region of the right flank of 6 to 7 week-old BALB/c mice (Shanghai Lingchang Biotechnology Co., Ltd, Shanghai) to prepare a CT26 tumor model.
(§5) Drug administration was carried out for 12 days from the day after the test groups were grouped into a group treated with A01 (Example 34b), a group treated with an anti-PD-1 antibody, an immune checkpoint inhibitor, and a group treated with A01 and an anti-PD-1 antibody in combination. The anti-PD-1 antibody (BioXcell, Cat #BP0146) was diluted in PBS and intraperitoneally administered once every 3 days at a concentration of 200 μg/mouse. A01 was used as an excipient by adding Tween 80 to 0.5% methycellulose (40000 cp) aqueous solution until it reached 0.2%, and A01 was suspended as an excipient and orally administered daily at a concentration of 150 mg/kg.

CT26 cells = assay: Anticancer efficacy in mouse-derived colorectal carcinoma CT26 tumor model (tumor size); format: in vivo
Method: Experimental Example 2.1. Evaluation of Anticancer Efficacy of Combination Administration in Mouse-Derived Colorectal Carcinoma Tumor Model: CT26
as §4
The tumor size was calculated by measuring the short axis and the long axis using a vernier caliper and substituting them into Equation 1 below.
tumor size (volume, mm^3)=(short axis, mm)^2×(long axis, mm)×0.5 [Equation 1]
(§6) When the tumor size reached an average of 70 to 100 mm^3, the mice were randomly divided into groups for the evaluation of drug efficacy (average tumor size per group=79 mm^3). The drug efficacy was evaluated by substituting the measured tumor size into Equation 2 to calculate and compare the tumor growth inhibitory ability between groups.
tumor growth inhibitory ability=[{(control group tumor size at the time of measurement,C)−(control group tumor size at the start of administration,C0)}−{(test group tumor size at the time of measurement,T)−(test group tumor size at the start of administration,T0)}]/{(control group tumor size at the time of measurement,C)−(control group tumor size at the start of administration,C0)} [Equation 2]
as §5, with “A01 was used as an excipient by adding Tween 80 to 0.5% methycellulose (40000 cp) aqueous solution until it reached 0.2%, and A01 was suspended as an excipient and orally administered daily at a concentration of 150 mg/kg.” left out

MC38 cells = assay: Anticancer efficacy in mouse-derived colorectal carcinoma MC38 tumor model (tumor size); format: in vivo
Method: Experimental Example 2.2. Evaluation of Anticancer Efficacy of Combination Administration in Mouse-Derived Colorectal Carcinoma Tumor Model: MC38
as §4, with “MC38” for “CT26”, “subcultured” for “subcultured and maintained”, “5%” for “500”, “DMEM” for “RPMI-1640”, “1×10^6” for “533 10^5”, “C57B/6” for “BALB/c”
The tumor size was calculated by measuring in the same manner as in Experimental Example 2.1.
as §6, with “size=91” for “size per group=79”, “2 of Experimental Example 2.1” for “2”
as §5, with “18” for “12”, “A02” for “A01”, “1b),” for “34b),”

[2] = Body weight of mice in MC38 tumor model; format: in vivo, mouse; conditions: C57B/6 mice
Method: as §4, with “MC38” for “CT26”, “subcultured” for “subcultured and maintained”, “5%” for “500”, “DMEM” for “RPMI-1640”, “1×10^6” for “533 10^5”, “C57B/6” for “BALB/c”
as §5, with “18” for “12”, “A02” for “A01”, “1b),” for “34b),”

T1 sequence (P35408 whole entry): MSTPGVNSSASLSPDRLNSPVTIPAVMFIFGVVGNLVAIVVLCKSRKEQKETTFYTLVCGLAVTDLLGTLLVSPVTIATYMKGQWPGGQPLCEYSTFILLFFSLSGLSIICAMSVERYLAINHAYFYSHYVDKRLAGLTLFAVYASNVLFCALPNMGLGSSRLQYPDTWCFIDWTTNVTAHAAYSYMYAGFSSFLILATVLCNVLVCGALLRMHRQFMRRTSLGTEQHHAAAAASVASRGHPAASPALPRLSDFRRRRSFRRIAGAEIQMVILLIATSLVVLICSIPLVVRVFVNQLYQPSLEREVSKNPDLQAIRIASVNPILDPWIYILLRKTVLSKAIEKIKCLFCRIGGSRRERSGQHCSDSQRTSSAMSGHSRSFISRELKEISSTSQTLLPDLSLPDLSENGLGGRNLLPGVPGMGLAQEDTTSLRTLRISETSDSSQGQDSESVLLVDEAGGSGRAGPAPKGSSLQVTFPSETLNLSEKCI
T2 sequence (P43116 whole entry): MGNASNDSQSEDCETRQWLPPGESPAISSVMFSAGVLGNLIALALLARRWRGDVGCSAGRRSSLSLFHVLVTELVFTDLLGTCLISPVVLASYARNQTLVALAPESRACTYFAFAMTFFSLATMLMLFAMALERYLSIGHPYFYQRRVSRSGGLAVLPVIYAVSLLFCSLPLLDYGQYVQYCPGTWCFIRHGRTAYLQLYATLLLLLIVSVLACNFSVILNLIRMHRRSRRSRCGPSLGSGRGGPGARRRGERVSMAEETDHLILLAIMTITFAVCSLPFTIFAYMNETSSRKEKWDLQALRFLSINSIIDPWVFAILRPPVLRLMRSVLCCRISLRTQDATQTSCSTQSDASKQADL

## COc1cc(-c2ccc(Cc3c(C)sc(C)c3C(=O)NC3CC4(C3)CC(C(=O)O)C4)cc2)cc(N2CCC2=O)c1 [Example 63, (2R, 4R, 6R)-6-(4-((3′-methoxy-5′-(2-oxoazetidin-1-yl)-[1,1′-biphenyl]-4-yl)methyl)-2,5-dimethylthiophene-3-carboxamido)spiro[3.3]heptane-2-carboxylic acid]
hEP4
  IC50: ≤ 500 nM

## O=C(N[C@]12C[C@](C(=O)O)(C1)C2)c1csc2ccn(Cc3ccc(-c4ccccc4)cc3)c12 [Example 87, 3-(4-([1,1′-biphenyl]-4-ylmethyl)-4H-thieno[3,2-b]pyrrole-3-carboxamido)bicyclo[1.1.1]pentane-1-carboxylic acid]
hEP2
  IC50: > 10000 nM
hEP4
  IC50: > 10000 nM

## COc1cc(F)cc(-c2ccc(Cc3c(C)sc(C)c3C(=O)NC3CC4(C3)CC(C(=O)O)C4)cc2)c1 (stereo not shown) [Example A01]
[1]; 12 days administration, A01 150 mg/kg oral daily, anti-PD-1 antibody 200 μg/mouse i.p. once every 3 days
  body weight at end point of the test: 22.2 ± 0.6 g
[1]; start of drug administration
  body weight at start point of the test: 20.4 ± 0.4 g
CT26 cells; 12 days administration, A01 150 mg/kg oral daily, anti-PD-1 antibody 200 μg/mouse i.p. once every 3 days, Equation 2
  tumor growth inhibition rate compared to control group: 38.5%
CT26 cells; BALB/c mice, 12 days administration, A01 150 mg/kg oral daily, anti-PD-1 antibody 200 μg/mouse i.p. once every 3 days
  tumor size at end point of the test: 1092.6±237.5 mm^3
CT26 cells; BALB/c mice, start of drug administration
  tumor size at start point of the test: 79.4±2.3 mm^3

## Cc1sc(C)c(C(=O)NC2CC3(C2)CC(C(=O)O)C3)c1Cc1ccc(-c2ccccc2)cc1 (stereo not shown) [Example A02]
MC38 cells; 18 days administration, A02 150 mg/kg oral daily, anti-PD-1 antibody 200 μg/mouse i.p. once every 3 days, Equation 2
  tumor growth inhibition rate compared to control group: 32.7%
MC38 cells; C57B/6 mice, 18 days administration, A02 150 mg/kg oral daily, anti-PD-1 antibody 200 μg/mouse i.p. once every 3 days
  tumor size at end point of the test: 1711.0±236.4 mm^3
MC38 cells; C57B/6 mice, start of drug administration
  tumor size at start point of the test: 91.5±3.1 mm^3
[2]; 18 days administration, A02 150 mg/kg oral daily, anti-PD-1 antibody 200 μg/mouse i.p. once every 3 days
  body weight at end point of the test: 22.0 ± 0.4 g
[2]; start of drug administration
  body weight at start point of the test: 19.1 ± 0.2 g

Source: patent US20250161271A1, “PHARMACEUTICAL COMPOSITION FOR TREATING CANCER, COMPRISING ANTICANCER AGENT AND NOVEL COMPOUND HAVING INHIBITORY ACTIVITY WITH RESPECT TO PROSTAGLANDIN E2 RECEPTORS” (KANAPH THERAPEUTICS INC., priority 2022, published 2025)
